Experimental data reported in ChEMBL document CHEMBL5247586, “Discovery of fusidic acid derivatives as novel STING inhibitors for treatment of sepsis” (Eur J Med Chem, 2022).
Activity calls are given as the source filed them. The rule behind the calls is not given here.

Key:
RAW264.7 [1] = test: Anti inflammatory activity in LPS-induced mouse RAW264.7 cells assessed as inhibition of NO production at 2.5 uM preincubated with compound for 2 hrs followed by LPS stimulation and measured after 24 hrs by griess reagent based assay relative to control; type: functional; conditions: time 26 hrs
RAW264.7 [2] = test: Anti inflammatory activity in LPS-induced mouse RAW264.7 cells assessed as inhibition of NO production at 5 uM preincubated with compound for 2 hrs followed by LPS stimulation and measured after 24 hrs by griess reagent based assay relative to control; type: functional; conditions: time 26 hrs
RAW264.7 [3] = test: Anti inflammatory activity in LPS-induced mouse RAW264.7 cells assessed as inhibition of NO production preincubated with compound for 2 hrs followed by LPS stimulation and measured after 24 hrs by griess reagent based assay; type: functional, cell-based
[4] = target: T1, Stimulator of interferon genes protein (Mus musculus) (UniProt Q3TBT3); test: Binding affinity to STING in mouse RAW264.7 cells assessed as thermal stabilization at 46 degree C measured for 8 hrs by cellular thermal shift assay; type: cell-based; conditions: dose 0-20 µM
T1 sequence (whole entry): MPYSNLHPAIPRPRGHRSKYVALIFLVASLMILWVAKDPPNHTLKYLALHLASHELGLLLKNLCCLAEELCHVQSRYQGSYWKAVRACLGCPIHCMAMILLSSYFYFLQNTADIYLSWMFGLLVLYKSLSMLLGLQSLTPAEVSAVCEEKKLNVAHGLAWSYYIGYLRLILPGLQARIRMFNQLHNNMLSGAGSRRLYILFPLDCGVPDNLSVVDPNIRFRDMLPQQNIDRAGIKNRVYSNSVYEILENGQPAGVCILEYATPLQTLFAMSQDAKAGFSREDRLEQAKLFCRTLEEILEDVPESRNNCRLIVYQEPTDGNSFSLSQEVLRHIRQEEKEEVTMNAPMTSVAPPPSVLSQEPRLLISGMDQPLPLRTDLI

[5] = target: T2, Interferon regulatory factor 3 (Mus musculus) (UniProt P70671); test: Inhibition of IRF3 phosphorylation in LPS-induced mouse RAW264.7 cells preincubated with compound for 2 hrs followed by LPS stimulation and measured after 6 hrs by Western blot analysis; type: cell-based; conditions: dose 0.5-2 µM, time 8.0 hrs
T2 sequence (whole entry): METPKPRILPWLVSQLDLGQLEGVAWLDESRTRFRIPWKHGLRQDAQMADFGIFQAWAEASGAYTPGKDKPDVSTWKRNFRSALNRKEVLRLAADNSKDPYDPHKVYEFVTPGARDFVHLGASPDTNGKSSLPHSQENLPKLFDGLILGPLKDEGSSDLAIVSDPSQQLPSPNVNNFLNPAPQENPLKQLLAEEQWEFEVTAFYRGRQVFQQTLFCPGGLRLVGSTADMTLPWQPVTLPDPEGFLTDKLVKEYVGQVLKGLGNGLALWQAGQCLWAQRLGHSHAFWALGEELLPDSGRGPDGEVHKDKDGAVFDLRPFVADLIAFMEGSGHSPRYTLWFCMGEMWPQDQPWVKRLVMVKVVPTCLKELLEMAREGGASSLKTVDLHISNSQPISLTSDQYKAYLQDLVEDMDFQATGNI

[6] = target: Transcription factor p65 (Mus musculus) (UniProt Q04207); test: Inhibition of p65 phosphorylation in LPS-induced mouse RAW264.7 cells preincubated with compound for 2 hrs followed by LPS stimulation and measured after 6 hrs by Western blot analysis; type: cell-based; conditions: dose 0.5-2 µM, time 8.0 hrs
Transcription factor p65 (Mus musculus), sequence (Q04207 whole entry): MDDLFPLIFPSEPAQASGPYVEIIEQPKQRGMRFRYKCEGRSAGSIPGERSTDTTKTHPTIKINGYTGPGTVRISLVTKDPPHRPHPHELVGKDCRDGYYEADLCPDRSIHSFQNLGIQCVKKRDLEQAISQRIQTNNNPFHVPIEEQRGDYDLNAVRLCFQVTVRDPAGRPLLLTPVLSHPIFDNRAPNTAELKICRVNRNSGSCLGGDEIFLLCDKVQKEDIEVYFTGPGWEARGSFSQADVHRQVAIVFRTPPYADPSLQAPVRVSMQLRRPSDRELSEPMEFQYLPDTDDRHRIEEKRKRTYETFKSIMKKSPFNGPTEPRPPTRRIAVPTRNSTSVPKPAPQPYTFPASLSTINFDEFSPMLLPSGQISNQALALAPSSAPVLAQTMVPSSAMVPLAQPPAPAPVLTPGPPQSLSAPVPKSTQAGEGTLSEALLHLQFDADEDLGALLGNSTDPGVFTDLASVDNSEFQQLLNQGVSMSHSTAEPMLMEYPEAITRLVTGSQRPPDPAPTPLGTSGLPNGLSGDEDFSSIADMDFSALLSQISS

RAW264.7 [7] = test: Anti inflammatory activity in LPS-induced mouse RAW264.7 cells assessed as suppression of IFN- beta levels at 0.5 to 2 uM preincubated with compound for 2 hrs followed by LPS stimulation for 6 hrs by ELISA method; type: functional, cell-based; conditions: dose 0.5-2 µM, time 8.0 hrs
Mus musculus [8] = test: (§1) Protective activity against LPS induced sepsis in BALB/c mouse model of acute liver injury assessed as improvement of disorderly arranged liver tissue at 1.25 to 5 mg/kg, IG administered once a day for 3 days followed by LPS stimulation for 12 hrs starting from 2 hrs post last dose by hematoxylin and eosin staining based analysis; type: functional, organism-based; conditions: dose 1.25-5 mg/kg, time 86.0 hrs
Mus musculus [9] = test: as §1, with “in swollen hepatocytes” for “of disorderly arranged liver tissue”; type: functional, organism-based; conditions: dose 1.25-5 mg/kg, time 86.0 hrs
Mus musculus [10] = test: as §1, with “reduction in necrotic hepatocytes” for “improvement of disorderly arranged liver tissue”; type: functional, organism-based; conditions: dose 1.25-5 mg/kg, time 86.0 hrs
Mus musculus [11] = test: as §1, with “reduction in inflammatory cell infiltration” for “improvement of disorderly arranged liver tissue”; type: functional, organism-based; conditions: dose 1.25-5 mg/kg, time 86.0 hrs
Mus musculus [12] = test: Protective activity against LPS induced sepsis in BALB/c mouse model of acute liver injury assessed as reduction in ALT level in serum at 1.25 to 5 mg/kg, IG administered once a day for 3 days followed by LPS stimulation for 12 hrs starting from 2 hrs post last dose by ELISA; type: functional, organism-based; conditions: dose 1.25-5 mg/kg, time 86.0 hrs
Mus musculus [13] = test: Protective activity against LPS induced sepsis in BALB/c mouse model of acute liver injury assessed as reduction in ALP level in serum at 1.25 to 5 mg/kg, IG administered once a day for 3 days followed by LPS stimulation for 12 hrs starting from 2 hrs post last dose by ELISA; type: functional, organism-based; conditions: dose 1.25-5 mg/kg, time 86.0 hrs
Mus musculus [14] = test: Antiinflammatory activity in BALB/c mouse model of LPS induced sepsis assessed as inhibition of TNF-alpha production at 1.25 to 5 mg/kg, IG administered once a day for 3 days followed by LPS stimulation for 12 hrs starting from 2 hrs post last dose by qRT-PCR analysis; type: functional, organism-based; conditions: dose 1.25-5 mg/kg, time 86.0 hrs
Mus musculus [15] = test: Antiinflammatory activity in BALB/c mouse model of LPS induced sepsis assessed as inhibition of IFN-beta production at 1.25 to 5 mg/kg, IG administered once a day for 3 days followed by LPS stimulation for 12 hrs starting from 2 hrs post last dose by qRT-PCR analysis; type: functional, organism-based; conditions: dose 1.25-5 mg/kg, time 86.0 hrs
[16] = target: T1, Stimulator of interferon genes protein (Mus musculus); test: (§2) In vivo inhibition of STING in BALB/c mouse model of LPS induced sepsis assessed as inhibition of upregulation of phosphorylated IRF3 protein expression at 1.25 to 5 mg/kg, IG administered once a day for 3 days followed by LPS stimulation for 12 hrs starting from 2 hrs post last dose by Western blot analysis; type: functional, organism-based; conditions: dose 1.25-5 mg/kg, time 86.0 hrs
[17] = target: T1, Stimulator of interferon genes protein (Mus musculus); test: as §2, with “IkappaB” for “IRF3”; type: functional, organism-based; conditions: dose 1.25-5 mg/kg, time 86.0 hrs
Mus musculus [18] = test: Anti-sepsis activity against BALB/c mouse model of LPS induced sepsis assessed as reduction in STING protein expression in liver at 1.25 to 5 mg/kg, IG administered once a day for 3 days followed by LPS stimulation for 12 hrs starting from 2 hrs post last dose by Western blot analysis; type: functional, organism-based; conditions: dose 1.25-5 mg/kg, time 86.0 hrs
Mus musculus [19] = test: Anti-sepsis activity against BALB/c mouse model of LPS induced sepsis assessed as reduction in STING mRNA expression in liver at 1.25 to 5 mg/kg, IG administered once a day for 3 days followed by LPS stimulation for 12 hrs starting from 2 hrs post last dose by qRT-PCR analysis; type: functional, organism-based; conditions: dose 1.25-5 mg/kg, time 86.0 hrs
[20] = Tmax in Sprague-Dawley rat administered intragastrically; type: ADME; conditions: in vivo, po, route ig
[21] = Cmax in Sprague-Dawley rat administered intragastrically; type: ADME; design: route ig; conditions: in vivo, po
[22] = MRT (0 to t) in Sprague-Dawley rat administered intragastrically; type: ADME; conditions: in vivo, po, route ig
Mus musculus [23] = test: as §1, with “in congested hepatic sinusoids” for “of disorderly arranged liver tissue”; type: functional, organism-based; conditions: dose 1.25-5 mg/kg, time 86.0 hrs

- IC50 (RAW264.7 [3]): 1150 nM
- Activity [4]: Dose-Dependent Effect
- inhibition [5]: Dose-Dependent Effect
- inhibition [6]: Dose-Dependent Effect
- inhibition [16]: Active
- inhibition [17]: Active
- Tmax [20]: 60 min
- Cmax [21]: 66.5 ng/mL
- MRT last [22]: 59.4 min
SMILES: C=CCONC(=O)CCSSCCC(=O)O[C@@H]1CC[C@@]2(C)[C@@H](CC[C@@]3(C)[C@H]2[C@H](O)C[C@H]2/C(=C(\CCC=C(C)C)C(=O)OCc4ccccc4)[C@@H](OC(C)=O)C[C@@]23C)[C@@H]1C
- inhibition at 2.5 µM (RAW264.7 [1]): 69.3%
- inhibition at 5 µM (RAW264.7 [2]): 78.7%
- Activity (RAW264.7 [7]): Active
- Activity (Mus musculus [8]): Active
- Activity (Mus musculus [9]): Active
- Activity (Mus musculus [10]): Active
- Activity (Mus musculus [11]): Active
- Activity (Mus musculus [12]): Active
- Activity (Mus musculus [13]): Active
- inhibition (Mus musculus [14]): Active
- inhibition (Mus musculus [15]): Active
- Activity (Mus musculus [18]): Active
- Activity (Mus musculus [19]): Active
- Activity (Mus musculus [23]): Active
